Molecular target: T1, human CXCR6 (Homo sapiens, UniProt O00574)
T1 construct: expressed in transfected cells
Test: Radioligand Binding Assay (125I-CXCL16 displacement)
Details: L1.2 cells stably transfected with human CXCR6 cDNA, 0.1 nM 125I-CXCL16, 4° C., three-hour incubation; read-out: Potency (IC50)
Procedure, shortened: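 Displacement of 0.1 nM 125I-CXCL16 from human CXCR6 stably expressed in L1.2 cells was measured after a 3 h, 4 °C incubation in HBSS with 0.1% BSA. Filter-bound cpm were counted, and IC50 values came from a 3-parameter nonlinear fit.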

T1 sequence (O00574 whole entry): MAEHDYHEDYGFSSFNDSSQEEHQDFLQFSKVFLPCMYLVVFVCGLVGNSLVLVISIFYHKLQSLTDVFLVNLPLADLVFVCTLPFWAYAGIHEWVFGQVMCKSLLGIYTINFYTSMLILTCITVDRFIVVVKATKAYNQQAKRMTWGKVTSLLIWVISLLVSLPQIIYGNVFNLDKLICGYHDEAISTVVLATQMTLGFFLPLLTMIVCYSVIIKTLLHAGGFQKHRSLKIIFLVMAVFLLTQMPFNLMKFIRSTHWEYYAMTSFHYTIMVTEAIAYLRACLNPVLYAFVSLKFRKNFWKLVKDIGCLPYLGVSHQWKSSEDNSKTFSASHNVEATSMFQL

IC50 | Structure (SMILES)
2 to 20 µM | CCOc1cc(NC(=O)[C@H]2CCCC[C@H]2OC)ccc1S(=O)(=O)Nc1cccc(OC(F)(F)F)c1 [Example 1.449]
2 to 20 µM | CC(=O)Nc1ccc(S(=O)(=O)Nc2cccc(OC(F)(F)F)c2)c(C(C)C)c1 [Example 1.132]
≤ 0.2 µM | CCOc1cc(NC(=O)[C@@H](NC=O)C(C)CC)ccc1S(=O)(=O)Nc1cccc(OC(F)(F)F)c1 (stereo partly shown) [Example 1.108]
0.2 to 0.75 µM | CCOc1cc(NC(=O)c2ccnc(OC)c2)ccc1S(=O)(=O)Nc1cccc(OC(F)(F)F)c1 [Example 1.076]
≤ 0.2 µM | CCOc1cc(NC(=O)[C@@H](O)C(C)CC)ccc1S(=O)(=O)Nc1cccc(OC(F)(F)F)c1 (stereo partly shown) [Example 1.492]
≤ 0.2 µM | CCOc1cc(NC(=O)[C@@H](O)C2CCCC2)ccc1S(=O)(=O)Nc1cccc(OC(F)(F)F)c1 [Example 1.416]
0.2 to 0.75 µM | CCOc1cc(NC(=O)[C@@H]2CCCCC[C@H]2O)ccc1S(=O)(=O)Nc1cccc(OC(F)(F)F)c1 [Example 1.562]
0.2 to 0.75 µM | CCOc1cc(NC(=O)C2CCC[C@H]2O)ccc1S(=O)(=O)Nc1cccc(OC(F)(F)F)c1 (stereo partly shown) [Example 1.468]

Second part, the compound before the results:

Structure (SMILES) | IC50
CCOc1cc(NC(=O)[C@@H](CO)c2ccccc2)ccc1S(=O)(=O)Nc1ccc(C)c(OC(F)(F)F)c1 [Example 1.003] | ≤ 0.2 µM
CCOc1cc(NC(=O)[C@@H](O)C(C)C)ccc1S(=O)(=O)Nc1ccc(C(F)(F)F)cc1 [Example 1.244] | 0.2 to 0.75 µM
CCOc1cc(NC(=O)[C@@H](CO)c2ccccc2)ccc1S(=O)(=O)Nc1ccc(Cl)c(OC)c1 [Example 1.550] | 0.2 to 0.75 µM
CCCCOc1cc(NC(=O)c2ccnn2C)ccc1S(=O)(=O)Nc1cccc(C(F)(F)F)c1 [Example 1.156] | 2 to 20 µM
CCOc1cc(NC(=O)[C@@H](CO)C(C)C)ccc1S(=O)(=O)Nc1ccc(C)c(C(C)C)c1 [Example 1.057] | ≤ 0.2 µM
COc1cc(NC(C)=O)cc(F)c1S(=O)(=O)Nc1cccc(OC(F)(F)F)c1 [Example 1.537] | 2 to 20 µM
CCOc1cc(NC(=O)[C@@H](CO)C(C)C)ccc1S(=O)(=O)Nc1cccc(OC(F)F)c1 [Example 1.066] | ≤ 0.2 µM
COc1cc(NC(=O)[C@@H]2C=CCN2C(=O)OC(C)(C)C)ccc1S(=O)(=O)Nc1cccc(C(F)(F)F)c1 [Example 1.033] | 2 to 20 µM
COc1cc(NC(=O)c2ccnn2C)ccc1S(=O)(=O)Nc1cc(OC(F)(F)F)ccc1F [Example 1.448] | 0.2 to 0.75 µM
Cc1cc(NC(=O)c2ccnn2C)ccc1S(=O)(=O)Nc1cccc(C(F)(F)F)c1 [Example 1.036] | ≤ 0.2 µM
COc1cc(NC(=O)c2ccnn2C)ccc1S(=O)(=O)Nc1cccc(C(C)(C)C)c1 [Example 1.231] | 0.2 to 0.75 µM

Reference: patent publication US20230339851A1, “CXCR6 SULFONAMIDE COMPOUNDS” (CHEMOCENTRYX, INC., priority 2022, published 2023)
